Test results: US4956363A, “Treatment of cognitive and behavioral disorders associated with aging and with dementia syndromes” (U C B S.A., priority 1988, dated 1990)

Experiments:
male NMRI mice = experiment: Toxicity, Irwin's test; assay type: in vivo
Procedure: Progressive doses of the compound to be tested are administered intraperitoneally to groups of three mice until the lethal dose is reached (dose which causes the death of two animals out of three within 48 hours).

[1] = test system: amnesia induced by scopolamine; experiment: Multiple-trial passive avoidance: mnemic retention (amnesia induced by scopolamine); conditions: compound i.p. at the dose of the line + scopolamine 0.5 mg i.p.
Procedure: To this end, the method of multiple-trial passive avoidance has been used. This method is well-known for evaluating the effects which a product exerts on the memory and learning (A. FINE et al., Proc. Natl. Acad. Sci. U.S.A., 82, (1985), 5227-5230).
The test is carried out on male Sprague-Dawley rats (160-200 g). which are kept in standard cages throughout the experiment.
The apparatus used is a transparent square cage with 35 cm sides and 25 cm high, fitted with a grid floor which can be electrified. An insulating rubber mat (10×17 cm) is placed on the floor in one of the corners of the cage.
Each animal is subjected to four tests at times 0, 4, 24 and 28 hours. In the first test (time 0), the animal is placed on the rubber mat and the time which it takes to decide to leave this position to explore the cage is recorded. After 20 seconds of exploration, the rat receives an electric shock (3 seconds duration) in the paws, causing a flight reaction. The rat is immediately removed from the apparatus and replaced in its original cage. In the course of the three subsequent tests (times: 4, 24 and 28 hours), the animal is replaced on the rubber mat and the time taken to leave this position is recorded. When the four paws of the animal rest on the grid, it receives an electric shock and is immediately removed from the apparatus.
At the start of the experiment, the rats are divided into 4 homogeneous groups of 15 animals. Thirty minutes before each test, each group of animals is subjected to a predetermined treatment:
Groups 1 and 2 are used in the first experiment and groups 3 and 4 are used in the second experiment.
The differences observed are analyzed statistically by the Mann-Whitney method.

[2] = test system: learning of the avoidance reflex; experiment: Multiple-trial passive avoidance: learning; assay type: in vivo, rats (male Sprague-Dawley); conditions: i.p. at the dose (mg/kg) of the line in Table V, 30 min before test; criterion 180 seconds on the mat
Procedure: To evaluate whether a compound can promote learning, the following test is carried out.
This experiment is repeated until the animal remains on the rubber mat for at least 180 seconds in order to avoid the electric shock. The learning is expressed by the average number of trials needed to reach a period of 180 seconds remaining on the mat.
A period of remaining on the rubber mat of 180 seconds is regarded as being the maximum performance which can be realized by the animal to avoid the electric shock. Rats which remain on the mat for this period have acquired the avoidance reflex and are replaced in their original cage without receiving the electric shock.
group 1 receives an intraperitoneal injection of physiological salt solution:
group 2 receives an intraperitoneal injection of the compound to be tested:
Columns 3 and 4 show the results obtained in the test used to evaluate the learning. The figures indicate the average number of trials needed for a control animal (group 1) or an animal treated (group 2) with the compound to learn to remain on the rubber mat for 180 seconds in order to avoid the electric shock. The results were analyzed by the Student test.

[3] = test system: hyperactivity induced by scopolamine; conditions: rats placed in a new environment; in words, literature; cited from earlier work
memory = conditions: in words, literature; cited from earlier work
[4] = test system: effects of scopolamine on the EEG, band from 6.4 to 9.6 Hz; experiment: Inhibition of the effects of scopolamine on the electroencephalogram (EEG); assay type: in vivo, rats (male albino Sprague-Dawley SPF); conditions: rats, i.p. at the dose (mg/kg) of the line in Table IV; scopolamine 0.5 mg/kg i.p.
Procedure: Male albino Sprague-Dawley SPF rats (160 to 200 g) are used in this test.
When the animals are 3 months old, 5 cortical electrodes are implanted permanently, aseptically and under a general anesthesia: one inert electrode, one left and one right frontal electrode, and one left and one right occipital electrode (P. ETEVENON, loc. cit.).
The test is carried out when the animals are about 15 months old. In the meantime, the animals are kept in individual cages. They are given water and food ad libitum and are subjected to a regular daily cycle comprising a period of darkness between 6 o'clock in the evening and 6 o'clock in the morning. At the same time, the animals are progressively acclimatized to the cages of the sound-proof cabin which they will subsequently occupy for recording of the electroencephalograms, as well as to the experimental conditions, by intraperitoneal administration of placebo. The products are administered immediately before the EEG is recorded.
The rats are divided into groups of 8 animals and 16 samples of the EEG spectra are recorded over 5 seconds (two EEG spectra per animal). The spectra obtained are then analyzed by computer (rapid Fourier transform), which enables the average of the 16 measurements performed to be determined for each group and the overall intensity of the EEG spectrum and the distribution of this intensity (in %) in the various frequency bands to be deduced for each animal.
This operation (recording of the spectra) is repeated 9 times (total duration: 121 minutes).

[5] = test system: salivatory effect of oxotremorine (peripheral cholinergic activation); experiment: Potentiation of the peripheral cholinergic (salivatory) effect of oxotremorine; assay type: in vivo, mice (male NMRI); conditions: 20 minutes after administration at the minimum active dose; in words
Procedure: The degree of peripheral cholinergic activation is measured by the salivatory effect quantified by the following rating system:
score 1: a little saliva is found around the teeth;
score 2: the saliva forms a narrow band around the mouth;
score 4: the saliva wets a surface underneath the chin;
score 6: the saliva runs from the mouth, for example onto the forelegs.
The intermediate scores are not used, and the saliva is wiped away after each observation.
(§1) Male NMRI mice (20 to 25 g) are divided into four groups of five animals, that is to say: one control group and three treated groups.
The compound to be tested is administered intraperitoneally (to the three treated groups) 20 minutes before the administration of the oxotremorine, at a dose which differs for each of the treated groups. […]
(§2) For each of the groups, the individual scores recorded at each observation period are summed: this enables to plot a curve showing the sum of the scores as a function of time, which is characteristic for each group.
(§3) The mean values of the areas under the curves obtained for each of the treated groups are compared with the mean value of the area under the curve corresponding to the control group and is subjected to statistical analysis by the Mann-Whitney method. From this comparison, "a minimum active dose" can be determined. […]

[6] = test system: tremogenic effect of oxotremorine (central cholinergic activation); experiment: Potentiation of the central cholinergic (tremogenic) effect of oxotremorine; assay type: in vivo, mice (male NMRI)
Procedure: The degree of central cholinergic activation is measured by the tremogenic effect quantified by the following rating system:
score 1: slight and periodic occasional tremors;
score 2: moderate and slight tremors often repeated;
score 4: accentuated tremors, but interrupted by periods of calm;
score 6: very accentuated and almost continuous tremors.
as §1
The compound to be tested is administered intraperitoneally (to the three treated groups) 20 minutes before the administration of the oxotremorine, at a dose which differs for each of the treated groups.
The oxotremorine is administered intraperitoneally to the treated groups and to the control group at a dose of 0.05 mg/kg dissolved in 10 ml/kg of physiological salt solution. […]
as §2, §3

[7] = mice, i.p., death of two animals out of three within 48 hours

Structure (SMILES)	Lethal dose (male NMRI mice; [7]) [mg/kg]	Period of remaining on the mat, group 4, 4 hours [1] [s]	Period of remaining on the mat, group 4, 24 hours [1] [s]	Period of remaining on the mat, group 4, 28 hours [1] [s]	Learning, average number of trials (group 2) [2]	other results
CCCc1nc(NC(=O)N(C)C)nc(N2CCOCC2)n1 [Compound 41, N,N-Dimethyl-N'-(4-morpholino-6-propyl-1,3,5-triazin-2-yl)-urea]	294	15.8	27.3	66.3	1.33	
CN1[C@@H]2C[C@@H](OC(=O)[C@H](CO)c3ccccc3)C[C@H]1[C@@H]1O[C@@H]12 [scopolamine]						effect on exploratory activity [3]: induces exploratory hyperactivity; effect on memory (memory): gives rise to memory deficiencies similar to those observed in elderly subjects
CCCc1nc(NC(C)=O)nc(N2CCOCC2)n1	996	60.4	74.6	102.4	1.53	
CCCc1nc(N(C)CCO)nc(N2CCOCC2)n1	844	67.9	62.7	160.3	2.0	
CCCc1nc(NC)nc(N2CCOCC2)n1 [Compound 45, 2-(Methylamino)-4-morpholino-6-propyl-1,3,5-triazine]	821				2.00	Inhibition of the effects of scopolamine on the band from 6.4 to 9.6 Hz in the EEG [4]: 91.7%
CCCc1nc(N2CCOCC2)nc(N(C)C(=O)c2ccccc2)n1.Cl		88.6	111.5	133.5	1.13	Lethal dose (male NMRI mice; mouse, in vivo, ip): 1133 mg/kg; Period of remaining on the mat, group 4, time 0 ([1]; 0 h): 11.3 s
CCCc1nc(NN(C)C)nc(N2CCOCC2)n1	799	55.3	57.7	87.9	1.53	
COC(=O)C1=CCCN(C)C1 [arecoline, methyl 1,2,5,6-tetrahydro-1-methyl-3-pyridinecarboxylate]						potentiation of the salivatory effect of oxotremorine [5]: no potentiation; potentiation of the tremogenic effect of oxotremorine ([6]; 20 minutes after administration at the minimum active dose, in words): no potentiation
CCCc1nc(NC(CC)CO)nc(N2CCOCC2)n1 (centres unmarked)	886		22.5	52.1	2.57	
O=C1CCCN1CC#CCN1CCCC1 [oxotremorine]						minimal effective dose ([6]; Mus musculus, ip, mice, i.p., approximate, read-out: minimum dose of oxotremorine which causes tremors and salivation): ~0.05 mg/kg
CCCc1nc(N)nc(N2CCOCC2)n1 [Compound 44, 2-Amino-4-morpholino-6-propyl-1,3,5-triazine]	779				1.13	Inhibition of the effects of scopolamine on the band from 6.4 to 9.6 Hz in the EEG [4]: 100%
CCCc1nc(NCCOC(C)=O)nc(N2CCOCC2)n1	928		44.4	49.9	1.3	
CCCc1nc(NCCO)nc(N2CCOCC2)n1	802	44.8	61.3	102.7	1.53	
CCCc1nc(NCCOC)nc(N2CCOCC2)n1 [Compound 10, 2-[(2-methoxyethyl)amino]-4-morpholino-6-propyl-1,3,5-triazine]	844	15.7	31.1	34.1	2.07	
CCCc1nc(N2CCOCC2)nc(N(C)C(C)=O)n1	838		34.7	44.5	2.07	
CCCc1nc(NC(=O)c2ccccc2)nc(N2CCOCC2)n1.Cl		70.9	82.8	137.6	1.0	Lethal dose (male NMRI mice; mouse, in vivo, ip): 1091 mg/kg
CCCc1nc(NC[C@H](C)O)nc(N2CCOCC2)n1 [Compound 16, (S)-3-[(4-morpholino-6-propyl-1,3,5-triazin-2-yl)amino]-2-propanol]	844					
